Results on 13 compounds are retold here after US20110053995A1, “BENZENESULFONANILIDE COMPOUND INHIBITORS OF UREA TRANSPORTERS” (THE REGENTS OF THE UNIVERSITY OF CALIFORNIA, priority 2006, published 2011).

Like-named read-outs stand apart in the source and are kept apart here.

The subject of assay [1] is UT. Conditions: non-specific membrane intercalating agent; cited from earlier work.
In assay [2] the target is T1, rat UT-A1 (Rattus norvegicus, UniProt Q62668).
T1 construct: expressed in transfected cells; host or cells: MDCK cells (gift of Dr. Jeffrey Sands, Emory University)
T1 sequence (Q62668 1-929): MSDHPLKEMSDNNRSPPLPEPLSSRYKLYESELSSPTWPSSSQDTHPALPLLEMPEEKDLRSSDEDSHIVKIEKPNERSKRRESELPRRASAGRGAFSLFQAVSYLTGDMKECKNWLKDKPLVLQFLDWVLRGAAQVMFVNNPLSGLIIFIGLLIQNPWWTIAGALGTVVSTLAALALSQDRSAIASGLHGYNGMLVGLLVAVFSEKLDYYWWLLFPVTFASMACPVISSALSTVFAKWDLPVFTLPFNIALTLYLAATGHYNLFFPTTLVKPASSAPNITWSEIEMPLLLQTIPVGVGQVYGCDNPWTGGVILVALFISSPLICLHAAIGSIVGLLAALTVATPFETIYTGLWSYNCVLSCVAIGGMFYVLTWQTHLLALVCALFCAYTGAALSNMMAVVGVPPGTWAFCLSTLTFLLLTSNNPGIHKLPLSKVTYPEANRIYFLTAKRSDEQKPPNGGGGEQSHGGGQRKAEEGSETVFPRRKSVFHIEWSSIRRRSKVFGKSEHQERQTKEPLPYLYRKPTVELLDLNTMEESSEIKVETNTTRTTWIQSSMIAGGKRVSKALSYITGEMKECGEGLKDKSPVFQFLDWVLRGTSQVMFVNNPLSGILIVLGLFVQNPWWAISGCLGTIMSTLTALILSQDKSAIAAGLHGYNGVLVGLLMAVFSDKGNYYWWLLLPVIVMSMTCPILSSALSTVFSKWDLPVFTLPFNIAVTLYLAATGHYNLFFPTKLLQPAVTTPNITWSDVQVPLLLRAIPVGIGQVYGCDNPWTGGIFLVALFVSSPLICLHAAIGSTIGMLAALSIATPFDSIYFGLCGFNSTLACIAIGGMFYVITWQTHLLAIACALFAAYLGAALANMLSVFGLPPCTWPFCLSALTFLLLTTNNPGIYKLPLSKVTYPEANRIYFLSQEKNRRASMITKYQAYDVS
As to the kind of experiment: UT-A1-facilitated urea flux across MDCK-UT-A1 cell layers. It is filed as cell-based. To be noted: for inhibition of rat UT-A1: 25 μM. The method, then:
Concentration-inhibition studies were performed to study the effect of the active mouse UT-B inhibitors on urea transport by UT-A. The amino acid sequences of UT-B and UT-A urea transporter isoforms share significant similarity. The cells used in these studies were MDCK cells that expressed rat UT-A1. MDCK-UT-A1-expressing cells were grown on collagen-coated porous filters until they were electrically tight, at which point 15 mM urea was introduced into buffer bathing the basolateral cell surface.
MDCK cells stably transfected with rat UT-A1 (MDCK-UT-A1) (Fröhlich et al., Am J Physiol. in press; Fröhlich et al., Am. J. Physiol. Cell Physiol. 286:C1264-70 (2004). Epub on Jan. 28, 2004) were generously provided by Dr. Jeffrey Sands (Emory University School of Medicine, Atlanta, Ga.). Cells were grown in Dulbecco's Modified Eagle Medium (DMEM) with bicarbonate and supplemented with 10% fetal bovine serum (FBS), 25 mM HEPES buffer, penicillin G (100 U/mL), streptomycin (100 μg/mL) and hygromycin (500 μg/mL). For determining urea flux, cells were grown on 12-mm collagen-coated TRANSWELL inserts (0.4 μm pore size; Costar) as described (Fröhlich et al., Am J Physiol. in press; Fröhlich et al., 2004, supra). The TRANSWELL inserts were incubated in hygromycin-free medium for 1 hr in a 5% CO2 tissue culture incubator (37° C.), and then 2×10^5 cells/cm^2 were loaded onto each insert. Cells were used after culturing the cells for 4 days in hygromycin-free medium, at which time they formed tight monolayers (transepithelial resistance 500-600 Ω·cm^2).
UT-A1-facilitated urea flux in the basolateral-to-apical direction across unstimulated and forskolin-stimulated MDCK-UT-A1 cell layers was measured in response to a 15-mM urea gradient. Experiments were carried out in 12-well plates in which PBS, containing either DMSO vehicle or forskolin, with or without UT-B inhibitor, added to both the apical-facing (0.2 mL) and basal-facing (1 mL) surfaces of cells on the porous filters. Cultures were incubated in the absence of urea for 30 min at 37° C. Then, the basal-facing solution was replaced with PBS (containing same components) with 15 mM urea. Five μL samples of apical fluid were collected at specified times during incubation at 37° C., and urea concentration was determined using a commercial kit based on chromogenic urea complexation at 520-nm wavelength (Quantichrom™ Urea Assay Kit, BioAssay Systems, Hayward, Calif.). Forskolin (10 μM), with or without UT-B transport inhibitors, was added from 1000× DMSO stock solutions (0.2% final DMSO content). Inhibition of UT-A1-mediated transport was defined as % inhibition=100% (Aforsk−Atest)/(Aforsk−Aphlor). Aforsk, and Aphlor were averaged absorbance values (at 520 nm) for cultures treated with forskolin and forskolin+phloretin, respectively, and Atest were values from cultures treated with forskolin+test compound.

Assay [3] has as its system RBCs from wild-type mice. In words: Osmotic water permeability, RBCs from wild-type mice. Type of assay: cell-based, mouse. The method, then: FIGS. 8A-B illustrate UT-B-facilitated water transport by ‘chemical UT-B knock-out’. Osmotic water permeability was measured from the time course of RBC volume in response to a 250-mM inwardly directed sucrose gradient. FIG. 8A presents representative traces of mouse RBC water permeability performed at 10° C., with genotypes and conditions indicated. Inhibitors ureainh-201 and ureainh-302 were used at 25 μM. FIG. 8B presents osmotic water permeability coefficients (Pf) from experiments as illustrated in FIG. 8A (±SE, 3-7 curves per group of RBCs pooled from 4 mice per genotype). *, P<0.01 compared with no inhibitor; #, P<0.01 compared with wild-type (no inhibitor).
RBC urea and water permeabilities were assayed by stopped-flow light scattering using a Hi-Tech Sf-51 instrument (Wiltshire, UK). For measurement of urea permeability, dilutions of whole blood (human or mouse; see Example 1) in PBS (hematocrit: approximately 0.5%) were incubated with test compounds for 5 min and then subjected to a 250-mM inwardly directed gradient of urea. After an initial osmotic shrinking phase, the kinetics of increasing cell volume caused by urea influx were measured as the time-course of 90° scattered light intensity at 530 nm, with increasing cell volume resulting in reduced scattered light intensity. As a positive control, 0.7 mM phloretin was added to the RBC suspension prior to stopped-flow experiments. Measurements of water permeability were carried out similarly, with sucrose (cell-impermeant) used instead of urea to establish a 250-mM osmotic gradient. As a positive control, HgCl2 (0.3 mM) was added to the RBC suspension prior to stopped-flow measurements. Osmotic water permeability coefficients (Pf) were computed from light scattering data as described (van Hoek et al., J Biol Chem. 267:18267-69 (1992)).
This example describes chemical knock-out of UT-B by UT-B inhibitors in RBCs and the effect on UT-B-facilitated Water transport. […] Osmotic water permeability was measured by stopped-flow light scattering in RBCs from wild-type and AQP1-null mice as shown in FIG. 8A. […] AQP1-null RBCs had greater than 5-fold reduced Pf compared to wild-type RBCs.

For assay [4], the target named is T2, UT-B (Homo sapiens, UniProt Q13336).
T2 construct: a red blood cell (i.e., erythrocyte), which endogenously expresses the urea transporter UT-B; endogenous in cells; host or cells: human red blood cells (whole venous blood, single donor)
T2 sequence (Q13336 1-389): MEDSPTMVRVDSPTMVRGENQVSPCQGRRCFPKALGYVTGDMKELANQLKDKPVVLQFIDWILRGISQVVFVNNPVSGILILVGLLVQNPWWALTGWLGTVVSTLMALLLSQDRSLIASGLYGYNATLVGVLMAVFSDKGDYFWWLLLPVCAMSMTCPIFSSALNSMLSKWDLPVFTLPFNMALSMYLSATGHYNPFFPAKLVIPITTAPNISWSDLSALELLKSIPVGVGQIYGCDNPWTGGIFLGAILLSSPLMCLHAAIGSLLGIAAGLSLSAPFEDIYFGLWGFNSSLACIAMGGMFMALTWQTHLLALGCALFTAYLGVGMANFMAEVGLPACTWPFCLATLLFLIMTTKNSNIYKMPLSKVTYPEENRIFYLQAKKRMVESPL
In words: RBC lysis assay, human RBCs. It is filed as cell-based. The source says: Vigorous mixing was achieved by repeated pipetting.

The mark [5] stands for this setting: lysis assay, FIG. 5B, read-out: apparent EC50.
[6] abbreviates: Table 2, read-out: EC50 (μM), UT-B inhibitory potency.

Turning to `O=C(CCc1ccc(O)cc1)c1c(O)cc(O)cc1O` [phloretin, reference compound], the concentration exhibiting activity in assay [1] was over 0.5 mM. Besides, the UT-A1-facilitated urea transport entry in assay [2] (phloretin 0.7 mM, forskolin-stimulated) is reported as “inhibited”. In assay [3] (0.7 mM), the “reduction in Pf” value is given as “small but significant reduction”. Also, the “effect on water transport” value in assay [3] (inhibitors 25 μM, phloretin 0.7 mM, 10° C.) is given as “little effect on water transport”.

As usually defined, the EC50 is the concentration at which the effect is half-maximal. Turning to `COc1cc(OC)cc(S(=O)(=O)Nc2cc(OC)ccc2OC)c1` [ureainh-201, N-(2,5-dimethoxyphenyl)-3,5-dimethoxybenzene sulfonamide], the concentration for a half-maximal effect (EC50) in assay [4] (setting [5]) turned out to be 0.3 µM. For the same compound, the “inhibition of rat UT-A1” value in assay [2] is on record as “Neither ureainh-201 at 25 μM nor ureainh-404 at 25 μM significantly inhibited”.

Consider `COc1ccc(OC)c(NS(=O)(=O)c2ccc(Br)cc2)c1` [ureainh-202, 4-bromo-N-(2,5-dimethoxyphenyl) benzenesulfonamide], for which the EC50 in assay [4] (setting [6]) was found to be 0.4 µM.

Consider `COc1ccc(OC)c(NS(=O)(=O)c2cccc(Br)c2)c1` [ureainh-203, 3-bromo-N-(2,5-dimethoxyphenyl) benzenesulfonamide], for which the concentration giving a half-maximal response (EC50) in assay [4] (setting [6]) was determined as 0.7 µM.

On to `NC(=O)c1ccc(S(=O)(=O)Nc2ccc3c(c2)OCCO3)cc1` [ureainh-207, 4-(N-(2,3-dihydrobenzo [b][1,4]dioxin-6-yl)sulfamoyl)benzamide], for which the EC50 in assay [4] (setting [6]) was determined as 2 µM.

With `Cc1cc(C)cc(S(=O)(=O)Nc2ccc3c(c2)OCCO3)c1` [ureainh-208, N-(2,3-dihydrobenzo [b][1,4]dioxin-6-yl)-3,5-dimethylbenzenesulfonamide], the EC50 in assay [4] (setting [6]) is 4 µM.

As for `COc1cccc(S(=O)(=O)Nc2ccc3c(c2)OCCO3)c1` [ureainh-209, N-(2,3-dihydrobenzo [b][1,4]dioxin-6-yl)-3-Methoxybenzenesulfonamide], the EC50 in assay [4] (setting [6]) is 6 µM.

For `CC(=O)c1cccc(S(=O)(=O)Nc2ccc3c(c2)OCCO3)c1` [ureainh-210, 3-acetyl-N-(2,3-dihydrobenzo [b][1,4]dioxin-6-yl) Benzenesulfonamide], in assay [4] (setting [6]), the EC50 amounted to 6 µM.

Turning to `O=S(=O)(Nc1ccc2c(c1)OCCO2)c1cccc(Br)c1` [ureainh-211, 3-bromo-N-(2,3-dihydrobenzo[b][1,4]dioxin-6-y])benzenesulfonamide], in assay [4] (setting [6]), the 50% effective concentration (EC50) stood at 8 µM.

On to `Cc1ccc(S(=O)(=O)Nc2ccc3c(c2)OCCO3)cc1C` [ureainh-212, N-(2,3-dihydrobenzo[b][1,4]dioxin-6-yl)-3,4-dimethylbenzenesulfonamide], for which the concentration giving a half-maximal response (EC50) in assay [4] (setting [6]) stood at 10 µM.

In the case of `O=S(=O)(Nc1ccc2c(c1)OCCO2)c1ccc2ccccc2c1` [ureainh-213, N-(2,3-dihydrobenzo[b][1,4]dioxin-6-yl)naphthalene-2-sulfonamide], in assay [4] (setting [6]), the EC50 turned out to be 10 µM.

In the case of `Cn1c(=O)oc2cc(NS(=O)(=O)c3cccc(C(F)(F)F)c3)ccc21` [ureainh-217, N-(3-methyl-2-oxo-2,3-dihydrobenzo[d]oxazol-6-yl)-3-(trifluoromethyl) Benzenesulfonamide], the EC50 in assay [4] (setting [6]) amounted to 4 µM.

For `CCn1c(NCc2cc(Br)ccc2O)nc2ccccc21` [ureainh-404], the concentration for a half-maximal effect (EC50) in assay [4] (setting [5]) came out at 0.4 µM. Further, the “inhibition of rat UT-A1” value in assay [2] is recorded as “Neither ureainh-201 at 25 μM nor ureainh-404 at 25 μM significantly inhibited”.
